Values joined by “and” are separate entries in the source; they are usually repeats but may differ in a detail not shown here. Equal entries are not always repeated. Where two headings read alike, the source gives them in different places. Each block holds one compound with its values, some of them ahead of it. Where a SMILES comes first, the peptide text is derived from it.
What was measured:
[1] = Sweetener preference in diluted phosphate salt bowel cleanser, forty test subjects (Example 5); format: in vivo, human; details: scale 1 to 4, 60 mL phosphate salt bowel cleanser in 355 mL water
Experimental: Each solution was prepared by diluting 60 mL of the phosphate salt bowel cleanser from Example 2 in 355 mL of water and using either 0.05% Ace-K, 0.05% Sucralose, 0.08% saccharin, 0.05% of a 5:1 Ace-K/Sucralose blend, or 15% sucrose as the sweetener.

[2] = considered to be; cited from earlier work
[3] = Stability of sweeteners in FLEET PHOSPHO-SODA (Example 1)
Experimental: While it is possible to add the sweetener and/or flavoring a short time before consumption of a phosphate salt bowel cleanser and retain at least a portion of the palatability benefits, one goal of the present bowel cleansing compositions is to provide stable liquids having increased palatability. Thus, numerous sweeteners and flavorings were tested for stability in phosphate salt bowel cleanser.
Sucrose, Saccharin, Sucralose, Aspartame, Ace-K, Thaumatin (Talin), Neohesperidine Dihydrochalcone (NHDC), and Trehalose were tested for stability in FLEET® PHOSPHO-SODA®.

[4] = Taste tests to determine equivalent sweetness of sweeteners in a salty liquid (Example 4); format: in vivo, human
Experimental: Before a preferred sweetener for use in salty liquids could be determined, the amount of each sweetener required to provide an equivalent sweetness was determined. Multiple taste tests were performed comparing various concentrations of Sucralose, Ace-K, the 5:1 Ace-K/Sucralose blend, Saccharin, and sucrose in a salty liquid to determine an equivalent […].

[5] = Sweetener concentration preference in diluted phosphate salt bowel cleanser, about 35 testers (Example 10); format: in vivo, human; details: for preferred sweetener concentration to decrease saltiness: in the phosphate salt bowel cleanser; for Average rating: scale 1 to 4, 4 highly preferred
Experimental: To confirm the correlation of FIG. 1 in a bowel cleanser with multiple sweeteners, approximately 35 testers were asked to select the most palatable solution from five possibilities. Each of the five solutions included 60 mL of the phosphate salt bowel cleanser from Example 2 in 355 mL of water. This solution has an equivalent saltiness to the 2% NaCI/water solution of Example 9. The first of the five solutions lacked any sweetener, while an increasing concentration of sweetener was added to the remaining four. Tests were performed using Sucralose, the 5:1 Ace-K/Sucralose blend, Ace-K, or Saccharin as the sweetener.
Tables 8, 9, 10, and 11, below, present the average test data for each sweetener, respectively.
The sweetener concentration for each data point corresponds to those in Tables 8 through 11, above, with higher values on the X-axis corresponding to higher sweetener concentrations.

[6] = Preferred Sucralose concentration in water, 0.4% NaCl and 2% NaCl, approximately 40 testers (Example 9); format: in vivo, human; details: for Preferred Sucralose Concentration (wt %): correlation line of FIG. 1
Description: To determine the preferred concentration of Sucralose to reduce the saltiness of bowel cleansers having different perceived saltiness, varying concentrations of Sucralose were tasted in water, a 0.4% NaCI water solution, and a 2% NaCI water solution. For each solution, approximately 40 testers were asked to rate four different concentrations of Sucralose. Tables 4, 5, and 6, below, present the average test data for the water, 0.4% NaCI water solution, and 2% NaCI water solution, respectively.
FIG. 1 plots the increasing salinity of the solutions from Tables 4, 5, and 6 against the preferred concentration of Sucralose required to reduce the saltiness and increase the palatability of each solution. The graph establishes that as saltiness increases, the amount of sweetener that should be added to improve palatability linearly increases (R^2=0.997). The X-axis NaCI and the Y-axis Sucralose concentrations represented by the correlation line from FIG. 1 are presented below in Table 7.

[7] = Preferred Sucralose concentration in PEG based bowel cleanser NuLytely, thirty test subjects (Example 11); format: in vivo, human; details: for rating of individual test subject / rating, Average: scale 1 to 5, 5 highly preferred, PEG based bowel cleanser
Description: To determine the preferred concentration of Sucralose to reduce the saltiness of a PEG based bowel cleanser, test subjects were asked to taste unsweetened and three sweetened solutions of NuLytely®. NuLytely® is an aqueous liquid including approximately 420 g of 3350 PEG, 5.72 g of sodium bicarbonate, 11.2 g of NaCI, and 1.48 g of KCI. It has a similar perceived saltiness to the similar GoLytely®, which is an aqueous liquid including approximately 236 g of 3350 PEG, 22.74 g of sodium sulfate, 6.74 g of sodium bicarbonate, 5.86 g of NaCI, and 2.97 g of KCI. Either solution has a saltiness that approximates the 0.4% NaCl/water solution of Example 9.
Each of thirty test subjects was asked to rate the four solutions on a scale of 1 to 5 with 5 being highly preferred and 1 being least preferred. The first solution included no sweetener. The second, third, and fourth solutions included 0.01%, 0.025%, or 0.05% (w/w) of Sucralose, respectively.

[8] = Mean acceptability ratings (Likert) of sweetener systems in phosphate salt bowel cleanser, 19 test subjects (Example 6); format: in vivo, human; details: at the same 0.38% concentration; systems with Ace-K
Experimental: A comparison between Saccharin/Ace-K and Sucralose/Ace-K was performed to determine which of these two sweetener systems most improved the palatability of a salty bowel cleanser. Table 3, below, provides the mean acceptability ratings for 19 test subjects who tasted 5:1 Saccharin/Ace-K and 5:1 Sucralose/Ace-K sweetener systems in 60 mL of the phosphate salt bowel cleanser from Example 2 in 355 mL of water.

[9] = Preference comparison of sweetened and unsweetened NaCl solutions and phosphate salt bowel cleansers (Example 8); format: in vivo, human
Description: To establish the reliability of the NaCI to bowel cleanser comparison, test subjects were asked to taste sweetened and unsweetened NaCI solutions and sweetened and unsweetened phosphate salt bowel cleansers. In this comparison of the sweetened and unsweetened NaCI solutions, out of 19 test subjects, 17 preferred the 2% NaCI solution that included 0.13% Sucralose. Furthermore, in the preference comparison of the sweetened and unsweetened phosphate salt bowel cleanser, 18 out of 20 test subjects preferred the phosphate salt bowel cleanser including 0.13% Sucralose. Therefore, the palatability increase provided by the Sucralose was similarly observed for the 2% NaCI/water solution and the phosphate salt bowel cleanser.

stability in FLEET PHOSPHO-SODA [3]: effectiveness diminished over time
Compound: COC(=O)[C@H](Cc1ccccc1)NC(=O)[C@@H](N)CC(=O)O [Aspartame] (HELM PEPTIDE1{D.F.[CO[*:1]]}$$$$V2.0)

stability in FLEET PHOSPHO-SODA [3]: acceptable stability
Compound: O=C1NS(=O)(=O)c2ccccc21 [Saccharin]
average preference value ([1]; 0.08% sweetener): 2.5
sweetness relative to sucrose / sugar [2]: about 200 times
sweetener concentration providing an equivalent sweetness [4]: 0.083%
preferred sweetener concentration to decrease saltiness [5]: about 0.0832%
Average rating ([5]; Saccharin 0.0208 % (w/w), phosphate salt bowel cleanser in water): 2.29
Average rating ([5]; Saccharin 0.0416 % (w/w), phosphate salt bowel cleanser in water): 2.47
Average rating ([5]; Saccharin 0.0832 % (w/w), phosphate salt bowel cleanser in water): 2.47
Average rating ([5]; Saccharin 0.1664 % (w/w), phosphate salt bowel cleanser in water): 1.97

stability in FLEET PHOSPHO-SODA [3]: acceptable stability
Compound: OC[C@H]1O[C@H](O[C@]2(CCl)O[C@H](CCl)[C@@H](O)[C@@H]2O)[C@H](O)[C@@H](O)[C@H]1Cl [Sucralose]
average preference value ([1]; 0.05% sweetener): 3.2
sweetness relative to sucrose / sugar [2]: about 600 times
sweetener concentration providing an equivalent sweetness [4]: 0.05%
preferred sweetener concentration to decrease saltiness [5]: 0.05%
Likert preferability comparison of sweeteners (FIG. 2) ([5]; phosphate salt bowel cleanser, scale 1 to 5, 5 most preferred, in words): most preferred
Average rating ([5]; Sucralose 0.0125 % (w/w), 60 mL phosphate salt bowel cleanser in 355 mL water): 2.56
Average rating ([5]; Sucralose 0.025 % (w/w), 60 mL phosphate salt bowel cleanser in 355 mL water): 2.72
Average rating ([5]; Sucralose 0.05 % (w/w), 60 mL phosphate salt bowel cleanser in 355 mL water): 3.22
Average rating ([5]; Sucralose 0.1 % (w/w), 60 mL phosphate salt bowel cleanser in 355 mL water): 2.88
Preferred Sucralose Concentration (wt %) ([6]; NaCl Concentration 0.0 wt %): 0.011 wt %
Preferred Sucralose Concentration (wt %) ([6]; NaCl Concentration 0.2 wt %): 0.015 wt %
Preferred Sucralose Concentration (wt %) ([6]; NaCl Concentration 0.4 wt %): 0.019 wt %
Preferred Sucralose Concentration (wt %) ([6]; NaCl Concentration 0.6 wt %): 0.023 wt %
Preferred Sucralose Concentration (wt %) ([6]; NaCl Concentration 0.8 wt %): 0.027 wt %
Preferred Sucralose Concentration (wt %) ([6]; NaCl Concentration 1.0 wt %): 0.031 wt %
Preferred Sucralose Concentration (wt %) ([6]; NaCl Concentration 1.2 wt %): 0.035 wt %
Preferred Sucralose Concentration (wt %) ([6]; NaCl Concentration 1.4 wt %): 0.038 wt %
Preferred Sucralose Concentration (wt %) ([6]; NaCl Concentration 1.6 wt %): 0.042 wt %
Preferred Sucralose Concentration (wt %) ([6]; NaCl Concentration 1.8 wt %): 0.046 wt %
Preferred Sucralose Concentration (wt %) ([6]; NaCl Concentration 2.0 wt %): 0.050 wt %
Preferred Sucralose Concentration (wt %) ([6]; NaCl Concentration 2.2 wt %): 0.054 wt %
Preferred Sucralose Concentration (wt %) ([6]; NaCl Concentration 2.4 wt %): 0.058 wt %
Preferred Sucralose Concentration (wt %) ([6]; NaCl Concentration 2.6 wt %): 0.062 wt %
Preferred Sucralose Concentration (wt %) ([6]; NaCl Concentration 2.8 wt %): 0.066 wt %
Preferred Sucralose Concentration (wt %) ([6]; NaCl Concentration 3.0 wt %): 0.070 wt %
preferred level of Sucralose ([6]; in the 0.4% NaCl solution): 0.02%
preferred level of Sucralose ([6]; in the 2% NaCl solution): 0.05%
preferred level of Sucralose ([6]; in water alone): 0.005%
preference of sweetened PEG based bowel cleanser compared with the unsweetened PEG cleanser ([7]; Sucralose-sweetened NuLytely): approximately 37%
preferred Sucralose concentration ([7]; in the PEG based bowel cleanser): 0.025%
rating of individual test subject ([7]; 0.01 % Sucralose): 4 (7×) and 2 (13×) and 3 (10×)
rating, Average ([7]; 0.01 % Sucralose): 2.80
rating of individual test subject ([7]; 0.025 % Sucralose): 4 (9×) and 2 (12×) and 3 (5×) and 1 (2×) and 5 (2×)
rating, Average ([7]; 0.025 % Sucralose): 2.90
rating of individual test subject ([7]; 0.05 % Sucralose): 2 (11×) and 1 (8×) and 5 (2×) and 4 (7×) and 3 (2×)
rating, Average ([7]; 0.05 % Sucralose): 2.47
preference for Sucralose over Saccharin [8]: up to 55%
number of test subjects preferring the sweetened solution ([9]; out of 19 test subjects, 2% NaCl solution with 0.13% Sucralose vs unsweetened): 17
number of test subjects preferring the sweetened cleanser ([9]; out of 20 test subjects, phosphate salt bowel cleanser with 0.13% Sucralose vs unsweetened): 18

stability in FLEET PHOSPHO-SODA [3]: effectiveness diminished over time
Compound: OC[C@H]1O[C@H](O[C@H]2O[C@H](CO)[C@@H](O)[C@H](O)[C@H]2O)[C@H](O)[C@@H](O)[C@@H]1O [Trehalose]

Continued, compound first:

Compound: CC1=CC(=O)NS(=O)(=O)O1 [Ace-K, acesulfame potassium]
average preference value ([1]; 0.05% sweetener): 2.45
sweetness relative to sucrose / sugar [2]: about 200 times
stability in FLEET PHOSPHO-SODA [3]: acceptable stability
sweetener concentration providing an equivalent sweetness [4]: 0.05%
preferred sweetener concentration to decrease saltiness [5]: 0.05%
Average rating ([5]; Ace-K 0.025 % (w/w), phosphate salt bowel cleanser in water): 1.88
Average rating ([5]; Ace-K 0.05 % (w/w), phosphate salt bowel cleanser in water): 2.63
Average rating ([5]; Ace-K 0.1 % (w/w), phosphate salt bowel cleanser in water): 2.16
Average rating ([5]; Ace-K 0.2 % (w/w), phosphate salt bowel cleanser in water): 2.16

Compound: COc1ccc(CCC(=O)c2c(O)cc(O[C@@H]3O[C@H](CO)[C@@H](O)[C@H](O)[C@H]3O[C@@H]3O[C@@H](C)[C@H](O)[C@@H](O)[C@H]3O)cc2O)cc1O [Neohesperidine Dihydrochalcone (NHDC), Neohesperidine Dihydrochalcone]
stability in FLEET PHOSPHO-SODA ([3]; sweetener in phosphate salt laxative solution): effectiveness diminished over time

Compound: OC[C@H]1O[C@@](CO)(O[C@H]2O[C@H](CO)[C@@H](O)[C@H](O)[C@H]2O)[C@@H](O)[C@@H]1O [Sucrose, reference compound]
average preference value ([1]; 15% sweetener): 3.3
stability in FLEET PHOSPHO-SODA [3]: effectiveness diminished over time
sweetener concentration providing an equivalent sweetness [4]: 15%

Compound: Thaumatin [Thaumatin (Talin)]
stability in FLEET PHOSPHO-SODA [3]: effectiveness diminished over time
